One assay concerns the target T1, PAH2 domain of SIN3A (Mus musculus, UniProt Q60520).
T1 construct: The PAH2 domain of mSin3A was overexpressed in the E. coli BL21 (DE3) codon plus RIL strain; His tag (inferred from Ni2+ chelating column); made in house; host or cells: E. coli BL21 (DE3) codon plus RIL
T1 sequence (Q60520 300-383 limits assumed): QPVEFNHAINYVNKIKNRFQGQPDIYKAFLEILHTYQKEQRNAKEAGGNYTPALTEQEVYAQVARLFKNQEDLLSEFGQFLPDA
As to the kind of experiment: Fluorescence anisotropy competition assay, FITC-labeled Mad1 peptide probe. Conditions: 70 nM PAH2 domain, 10 nM probe, PBS pH 7.4, 0.01% BSA, 1 h, 25°C; read-out: IC50, competition for binding to FITC-labeled MAD probe. The method, then:
The PAH2 domain of mSin3A was overexpressed in the E. coli BL21 (DE3) codon plus RIL strain (Stratagene) by addition of 1 mM isopropyl-1-thio-D-galactopyranoside and incubation overnight at 15°C. Harvested cells were re-suspended in 50 mM sodium phosphate buffer, pH 7.4, supplemented with 500 mM sodium chloride, 5% glycerol, and 0.1% Igepal CA-630 and lysed using a microfluidizer (Micro-fluidics) at 20,000 psi. After clarification of the crude extract by high-speed centrifugation, the lysate was loaded onto a 5 ml HiTrap chelating column (GE Healthcare) charged with Ni2+. The column was washed and the protein was eluted with 30 mM HEPES pH 7.4, 250 mM sodium chloride, and 250 mM imidazole. The protein was next purified on a Superdex75 column (GE Healthcare) equilibrated with 20 mM Tris-HCl buffer, pH 8.0, and 150 mM sodium chloride. Fractions containing the pure protein were combined and concentrated with 3 kDa MWCO centrifugal filters (Amicon).
The binding affinity of pSID for SIN3A was assessed in a fluorescence anisotropy competition assay using a fluorescein isothiocyanate-labeled Mad1 peptide as an assay probe. […] Measurements were obtained after a 1 h incubation of the fluorescent ligand and the protein at 25°C with a Safire 2 microplate reader (Tecan). […]
A general note: In fluorescence polarisation assays a small probe gives low polarisation when free and higher when bound to something large.

Assay [1] concerns MDA-MB-231 cells. As to the kind of experiment: FACS CD44/CD24 in MDA-MB-231. In kind it is cell-based, human. Conditions: 1 μM, 72 h; mean of three independent experiments; p = 0.01. The procedure: (§1) For aldehyde dehydrogenase assay, cells were dissociated with PBS-EDTA and tested for ALDH activity (2 × 10^5 cells/sample), using the Aldefluor assay (Aldegen) according to the manufacturer's instructions. For CD44 and CD24 antigens, cells were dissociated with Accutase, washed with PBS and incubated with PE-conjugated anti-CD24 and APC-conjugated anti-CD44 antibodies (BD Biosciences) for 40 minutes in ice. For quantification of NANOG, OCT4 and SOX2 dissociated cells were fixed with 1% paraformaldehyde (15 min at RT), permeabilized with 0.5% TritonX100 (10 min at RT) and incubated with 1:100 diluted antibodies against NANOG, OCT4 and SOX2 (Cell Signaling) for 1 h at room temperature. The cells were then washed and incubated with fluorophore-conjugated secondary antibodies Abcam). FACS analysis was carried out using a FACScanto flow cytometer, DIVA software program for acquisition (BD Biosciences) and FlowJo (Treestar.) software for analysis.

In another assay the test system is 4T1 cells. As to the kind of experiment: Lung metastasis of 4T1 cells in Balb/c mice. Format: in vivo, mouse. The method, then: 4T1 cells were treated for 14 days with water, Tat-Scr (2.5 μM) or Tat-SID (1 & 2.5 μM) and then inoculated orthotopically in the inguinal mammary gland of Balb/c mice (n = 5). […] Tumor volumes were calculated as ellipsoids (Dxd^2/2) by measuring the main diameter (D) and the smaller diameter (d) and plotted versus time (days). The experiment was stopped when tumors in the control group reached ∼500 mm^3, then, the mice were sacrificed, tumors were isolated for weight and lungs were isolated for metastatic foci analysis. Similar experiment was also performed using MMTV-Myc cells. In another set of experiments 4T1 cells stably transfected with Scr-shRNA or PF1-shRNA were inoculated in interscapular space of Balb/c mice (n = 10). […] Tumor-free survival was calculated from Kaplan-Meier curves, and statistical significance was determined using the log-rank test for survival and the t-test for tumor growth. Metastatic dissemination was evaluated by dissecting the lungs from sacrificed mice and inspecting the Bouin-fixed (Sigma) lung surface for lesions using a stereoscope (Nikon SMZ800 stereoscope X3 to X5). […] After 6 days, the number of colonies formed (each originating from a single tumor cell) were counted to evaluate the number of disseminated tumor cells (DTCs). To evaluate DTC proliferation, the number of cells per colony were counted using ImageJ software.

Assay [2] relates to MDA-MB-231 cells. The assay is described as follows: 3D culture colony morphogenesis of MDA-MB-231. Conditions: 3D matrigel, 10 days. Format: cell-based, human. The procedure: MDA-MB-231 cells were cultured on 8 chambered wells (BD Biosciences) and fixed with 4% paraformaldehyde/PBS for 15 min at room temperature. For 3D cultures cells were seeded (3 × 10^3/well) in quadruplicate onto Matrigel (BD Biosciences) or Cultrex basement membrane extracts (Trevigen) in 8-well culture slides to prepare three-dimensional cultures as described earlier. […] Colony morphology was determined by phase-contrast microscopy. For immunostaining, cells were permeabilized with 0.5% Triton X-100/PBS and blocked with 10% normal goat serum (Invitrogen) in PBS for 1 h. Primary antibodies were incubated overnight at 4°C in blocking buffer and washed 3 times with washing buffer (0.05% Triton X-100/PBS) and once with PBS. Secondary antibodies (dilution 1:200 in 1% normal goat serum/PBS) were added for 1 h and then washed. The samples were then mounted with ProLong Gold antifade reagent with DAPI (Molecular Probes/Invitrogen, CA), following the manufacturer instructions. All incubations and washes were done at 4 or 25°C as required. Confocal microscopy was performed using a Leica SP5 confocal microscope at the Shared Instrumentation facility of department of Hematology at Mount Sinai School of Medicine, NY.

The subject of assay [3] is MDA-MB-231 cells. As to the kind of experiment: Aldefluor ALDH1 activity in MDA-MB-231. Format: cell-based, human. Conditions: 1 μM, 72 h; mean of three independent experiments; p = 0.0395. The method, then: as §1
Assay [4] concerns H3K4me3 at the CDH1 and ESR1 promoters. Details: method as in PMID 20547842. Particulars: SID peptide, longer time period; cited from earlier work.

Peptide text beside a SMILES is read from it.

Turning to `CC[C@H](C)[C@H](NC(=O)[C@H](CC(N)=O)NC(=O)[C@H](CCSC)NC(=O)[C@H](CCCNC(=N)N)NC(=O)[C@@H](NC(=O)CNC(=O)CNC(=O)CNC(=O)[C@H](CCC(N)=O)NC(=O)[C@H](CCCNC(=N)N)NC(=O)[C@H](CCCNC(=N)N)NC(=O)[C@H](CCCCN)NC(=O)[C@H](CCCCN)NC(=O)[C@H](CCCNC(=N)N)NC(=O)CNC(=O)[C@@H](N)Cc1ccc(O)cc1)C(C)C)C(=O)N[C@@H](CCC(N)=O)C(=O)N[C@@H](CCSC)C(=O)N[C@@H](CC(C)C)C(=O)N[C@@H](CC(C)C)C(=O)N[C@@H](CCC(=O)O)C(=O)N[C@@H](C)C(=O)N[C@@H](C)C(=O)N[C@@H](CC(=O)O)C(=O)N[C@@H](Cc1ccc(O)cc1)C(=O)N[C@@H](CC(C)C)C(=O)N[C@@H](CCC(=O)O)C(=O)N[C@@H](CCCNC(=N)N)C(=O)N[C@@H](CCCNC(=N)N)C(=O)N[C@@H](CCC(=O)O)C(=O)N[C@@H](CCCNC(=N)N)C(=O)O` [Tat-SID] (H-YGRKKRRQGGGVRMNIQMLLEAADYLERRER-OH), the IC50 at PAH2 domain of SIN3A was found to be 1.26 µM.
With “YGRKKRRQGGG-EQRARRIMERLLEYNMVADL [Tat-Scr]”, the “CD44low/CD24low/neg population, mean” value with MDA-MB-231 cells [1] is 6.7%. In addition, the “number of lung metastasis, median” value in the assay on 4T1 cells (4T1 treated ex vivo with 2.5 μM, n = 5, Tat-SID p = 0.0446 versus Tat-Scr, vehicle 23) is on record as 13. Besides, the “decrease in lung metastasis versus vehicle” value with 4T1 cells (Tat-Scr 2.5 μM, p = 0.2107) is recorded as “not statistically significant”. The colony morphology result with MDA-MB-231 cells [2] is reported as “disorganized colonies with invasive projections”. The “ALDH+ cells, mean” value in the assay with MDA-MB-231 cells [3] amounted to 21.3%.
Consider `CC[C@H](C)[C@H](NC(=O)[C@H](CC(C)C)NC(=O)[C@H](CC(C)C)NC(=O)[C@H](CCC(=O)O)NC(=O)[C@H](Cc1ccccc1)NC(=O)[C@@H]1CCCN1C(=O)[C@H](CCCNC(=N)N)NC(=O)[C@H](CCCNC(=N)N)NC(=O)[C@H](CC(C)C)NC(=O)[C@H](CCC(N)=O)NC(=O)CNC(=O)CNC(=O)CNC(=O)[C@H](CCC(N)=O)NC(=O)[C@H](CCCNC(=N)N)NC(=O)[C@H](CCCNC(=N)N)NC(=O)[C@H](CCCCN)NC(=O)[C@H](CCCCN)NC(=O)[C@H](CCCNC(=N)N)NC(=O)CNC(=O)[C@@H](N)Cc1ccc(O)cc1)C(=O)N[C@@H](C)C(=O)N[C@@H](C)C(=O)N[C@@H](C)C(=O)N[C@@H](CCSC)C(=O)N[C@@H](CCC(=O)O)C(=O)N[C@@H](CCCNC(=N)N)C(=O)N[C@@H](CC(N)=O)C(=O)N1CCC[C@H]1C(=O)N[C@H](C(=O)N[C@@H](CCC(N)=O)C(=O)O)[C@@H](C)O` [PF1-SID] (H-YGRKKRRQGGGQLRRPFELLIAAAMERNPTQ-OH), for which, at PAH2 domain of SIN3A, the IC50 stood at 15.6 µM.
“SID peptide: SID peptide expressed from a plasmid vector over a longer time period (previous study) (YGRKKRRQGGGVRMNIQMLLEAADYLERRER)”: the “H3K4me3 at CDH1 and ESR1 promoters” value in assay [4] is “dramatic increases in H3K4^me3”.

One may read the IC50 as the point on the concentration scale where inhibition reaches its midpoint.
